Counter-ions that a name gives are not always drawn. Like-named read-outs stand apart in the source and are kept apart here.
Columns and labels:
Tyk2 = Tyk2 (Homo sapiens (Human), UniProt P29597); assay: pSTAT4 Cell Assay (MSD, NK92 cells); assay type: cell-based
JH2 domain of human Tyk2 = JH2 domain of human Tyk2 (Homo sapiens (Human), UniProt P29597); assay: JH2 Biochemical Assay (TR-FRET probe displacement); assay type: binding
[1] = JH2 domain of human Tyk2, TR-FRET probe displacement
[2] = TR-FRET probe displacement, JH2 domain of human Tyk2
[3] = TR-FRET probe displacement, JH2 domain

JH2 domain of human Tyk2, sequence (P29597 575-876): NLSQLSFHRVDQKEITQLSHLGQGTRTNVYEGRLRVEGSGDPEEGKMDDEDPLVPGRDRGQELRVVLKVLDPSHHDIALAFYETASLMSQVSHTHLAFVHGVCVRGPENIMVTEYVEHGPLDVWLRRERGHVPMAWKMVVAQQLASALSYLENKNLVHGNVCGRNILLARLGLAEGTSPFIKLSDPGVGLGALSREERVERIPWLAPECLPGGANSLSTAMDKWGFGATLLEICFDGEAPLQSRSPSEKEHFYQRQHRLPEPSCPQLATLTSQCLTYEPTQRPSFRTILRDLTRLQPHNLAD
Tyk2, sequence (P29597 whole entry, the tested form may be a part): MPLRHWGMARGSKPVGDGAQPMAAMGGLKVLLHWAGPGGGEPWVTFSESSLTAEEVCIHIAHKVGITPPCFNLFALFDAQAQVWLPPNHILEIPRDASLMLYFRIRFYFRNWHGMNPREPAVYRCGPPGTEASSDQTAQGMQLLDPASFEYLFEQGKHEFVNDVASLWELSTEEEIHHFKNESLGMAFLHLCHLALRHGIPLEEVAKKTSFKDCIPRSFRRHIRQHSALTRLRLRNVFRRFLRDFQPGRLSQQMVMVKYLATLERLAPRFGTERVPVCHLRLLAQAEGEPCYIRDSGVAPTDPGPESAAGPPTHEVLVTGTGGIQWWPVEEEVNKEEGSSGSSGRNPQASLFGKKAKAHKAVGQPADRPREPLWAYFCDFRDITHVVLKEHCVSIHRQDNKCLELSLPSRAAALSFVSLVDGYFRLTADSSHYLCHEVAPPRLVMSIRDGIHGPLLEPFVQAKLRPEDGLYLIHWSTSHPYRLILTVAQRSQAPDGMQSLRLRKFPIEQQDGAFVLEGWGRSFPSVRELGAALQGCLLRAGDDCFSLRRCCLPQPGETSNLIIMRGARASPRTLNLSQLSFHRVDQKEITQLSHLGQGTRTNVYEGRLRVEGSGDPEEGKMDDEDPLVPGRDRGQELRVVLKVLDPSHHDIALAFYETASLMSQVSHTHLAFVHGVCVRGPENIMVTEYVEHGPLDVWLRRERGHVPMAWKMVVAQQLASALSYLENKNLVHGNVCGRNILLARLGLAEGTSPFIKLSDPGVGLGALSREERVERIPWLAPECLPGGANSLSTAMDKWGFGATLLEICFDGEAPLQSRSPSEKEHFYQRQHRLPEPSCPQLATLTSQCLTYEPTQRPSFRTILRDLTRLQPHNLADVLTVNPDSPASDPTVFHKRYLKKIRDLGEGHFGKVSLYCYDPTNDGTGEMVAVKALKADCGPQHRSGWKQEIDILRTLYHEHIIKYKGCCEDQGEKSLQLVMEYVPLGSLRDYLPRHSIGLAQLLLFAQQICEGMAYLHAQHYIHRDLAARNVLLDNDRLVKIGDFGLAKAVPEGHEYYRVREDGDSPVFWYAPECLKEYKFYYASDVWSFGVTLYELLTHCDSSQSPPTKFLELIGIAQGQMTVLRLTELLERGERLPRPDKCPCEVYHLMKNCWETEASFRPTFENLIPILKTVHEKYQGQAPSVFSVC

Row | SMILES | IC50 (Tyk2; MSD) [nM] | IC50 (JH2 domain of human Tyk2; [1]) [nM] | IC50 (JH2 domain of human Tyk2; [2]) [nM] | IC50 (Tyk2) [nM] | IC50 (JH2 domain of human Tyk2; [3]) [nM]
1 | CC(=O)Nc1cc(Nc2cc(C)nc(C(C)(F)F)n2)c(-c2ccn3nccc3n2)cn1 [Example 540, N-(4-((2-(1,1-difluoroethyl)-6-methylpyrimidin-4-yl)amino)-5-(pyrazolo[1,5-a]pyrimidin-5-yl)pyridin-2-yl)acetamide] | ≤ 10 | ≤ 10 |  |  | 
2 | CCc1cc(Nc2cc(NC(C)=O)ncc2-c2ccc(OCCOC)nn2)nc(C(C)(F)F)n1 [Example 269, N-(4-((2-(1,1-difluoroethyl)-6-ethylpyrimidin-4-yl)amino)-5-(6-(2-methoxyethoxy)pyridazin-3-yl)pyridin-2-yl)acetamide trifluoroacetate] | ≤ 10 |  | ≤ 10 |  | 
3 | COc1ccc(-c2cc(Nc3cc(NC(C)=O)ncc3OC)nc(C(C)(F)F)n2)cn1 [Example 391, N-(4-((2-(1,1-difluoroethyl)-6-(6-methoxypyridin-3-yl)pyrimidin-4-yl)amino)-5-methoxypyridin-2-yl)acetamide] | 10 to 100 | ≤ 10 |  |  | 
4 | CC(=O)Nc1cc(Nc2cc(C)nc(C(C)(F)F)n2)c(-c2cccnn2)cn1 [Example 251, N-(4-((2-(1,1-difluoroethyl)-6-methylpyrimidin-4-yl)amino)-5-(pyridazin-3-yl)pyridin-2-yl)acetamide] | ≤ 10 |  | ≤ 10 |  | 
5 | CC(=O)Nc1cc(Nc2cc(C)nc(C(C)(F)F)n2)c(-n2cc(C#N)cn2)cn1 [Example 733, N-(5-(4-cyanO1H-pyrazol-1-yl)-4-((2-(1,1-difluoroethyl)-6-methylpyrimidin-4-yl)amino)pyridin-2-yl)acetamide] | 100 to 1000 | ≤ 10 |  |  | 
6 | CC(=O)Nc1cc(Nc2cc(C)nc(C(C)(F)F)n2)c(OCCC(C)F)cn1 (stereo not shown) [Example 444, N-(4-((2-(1,1-difluoroethyl)-6-methylpyrimidin-4-yl)amino)-5-(3-fluorobutoxy)pyridin-2-yl)acetamide] | 10 to 100 | ≤ 10 |  |  | 
7 | CC(=O)Nc1cc(Nc2cccc(C(C)(F)F)n2)c(-c2ncc(F)cn2)cn1 [Example 186, N-(4-((6-(1,1-difluoroethyl)pyridin-2-yl)amino)-5-(5-fluoropyrimidin-2-yl)pyridin-2-yl)acetamide] | 10 to 100 |  | ≤ 10 |  | 
8 | CC(=O)Nc1cc(Nc2ccnc(C(C)(F)F)n2)c(-c2nc3c(s2)CCN(C)C3)cn1 [Example 797, N-(4-((2-(1,1-difluoroethyl)pyrimidin-4-yl)amino)-5-(5-methyl-4,5,6,7-tetrahydrothiazolo[4,5-c]pyridin-2-yl)pyridin-2-yl)acetamide] |  |  |  | ≤ 10 | ≤ 10
9 | CC(=O)Nc1cc(Nc2cc(C)nc(C(C)(F)F)n2)c(OCC2CCCN2C)cn1 (stereo not shown) [Example 479, N-(4-((2-(1,1-difluoroethyl)-6-methylpyrimidin-4-yl)amino)-5-((1-methylpyrrolidin-2-yl)methoxy)pyridin-2-yl)acetamide] | 100 to 1000 | ≤ 10 |  |  | 
10 | CC(=O)Nc1cc(Nc2cc(C)nc(C(C)(F)F)n2)c(OCC23COCC(C2)C3)cn1 [Example 324, N-(5-((3-oxabicyclo[3.1.1]heptan-1-yl)methoxy)-4-((2-(1,1-difluoroethyl)-6-methylpyrimidin-4-yl)amino)pyridin-2-yl)acetamide] | 10 to 100 |  | ≤ 10 |  | 
11 | CC(=O)Nc1cc(Nc2cc(C)nc(C(C)(F)F)n2)c(-c2ccc([C@@H]3CN(C)CCO3)cn2)cn1 (single isomer, unassigned) [Example 643, (R)-N-(4′-((2-(1,1-difluoroethyl)-6-methylpyrimidin-4-yl)amino)-5-(4-methylmorpholin-2-yl)-[2,3′-bipyridin]-6′-yl)acetamide or (S)-N-(4′-((2-(1,1-difluoroethyl)-6-methylpyrimidin-4-yl)amino)-5-(4-methylmorpholin-2-yl)-[2,3′-bipyridin]-6′-yl)acetamide] | ≤ 10 | ≤ 10 |  |  | 
12 | CC(=O)Nc1cc(Nc2cc(C)nc(C(C)(F)F)n2)c(-c2cncc(C3CC3)n2)cn1 [Example 667, N-(5-(6-cyclopropylpyrazin-2-yl)-4-((2-(1,1-difluoroethyl)-6-methylpyrimidin-4-yl)amino)pyridin-2-yl)acetamide] | 10 to 100 | ≤ 10 |  |  | 
13 | CCc1cc(Nc2cc(NC(C)=O)ncc2-c2ccc(C(C)(C)O)cn2)nc(C(C)(F)F)n1 [Example 839, N-(4′-((2-(1,1-difluoroethyl)-6-ethylpyrimidin-4-yl)amino)-5-(2-hydroxypropan-2-yl)-[2,3′-bipyridin]-6′-yl)acetamide] |  |  |  | ≤ 10 | ≤ 10
14 | CC(=O)Nc1cc(Nc2cc(C)nc(C(C)(F)F)n2)c(-c2ccnc(C)n2)cn1 [Example 174, N-(4-((2-(1,1-difluoroethyl)-6-methylpyrimidin-4-yl)amino)-5-(2-methylpyrimidin-4-yl)pyridin-2-yl)acetamide] | ≤ 10 |  | ≤ 10 |  | 
15 | CC(=O)Nc1cc(Nc2cc(C)nc(C(C)(F)F)n2)c(OC[C@@H]2CCC[C@H](C)O2)cn1 (stereo in doubt) [Example 442, Cis-rac-N-(4-((2-(1,1-difluoroethyl)-6-methylpyrimidin-4-yl)amino)-5-((6-methyltetrahydro-2H-pyran-2-yl)methoxy)pyridin-2-yl)acetamide] | 10 to 100 | 10 to 100 |  |  | 
16 | COCc1ccc(-c2cnc(NC(C)=O)cc2Nc2ccnc(C3CCOC3)n2)nc1 (stereo not shown) [Example 567, N-(5-(methoxymethyl)-4′-((2-(tetrahydrofuran-3-yl)pyrimidin-4-yl)amino)-[2,3′-bipyridin]-6′-yl)acetamide] | 10 to 100 | ≤ 10 |  |  | 
17 | CC(=O)Nc1cc(Nc2cc(C)nc(C(C)(F)F)n2)c(OCCc2ccccn2)cn1 [Example 476, N-(4-((2-(1,1-difluoroethyl)-6-methylpyrimidin-4-yl)amino)-5-(2-(pyridin-2-yl)ethoxy)pyridin-2-yl)acetamide] | 10 to 100 | ≤ 10 |  |  | 
18 | COc1cnc(NC(C)=O)cc1Nc1cc(-c2cnn(C(F)F)c2)nc(C(C)(F)F)n1 [Example 375, N-(4-((2-(1,1-difluoroethyl)-6-(1-(difluoromethyl)-1H-pyrazol-4-yl)pyrimidin-4-yl)amino)-5-methoxypyridin-2-yl)acetamide] | 100 to 1000 | 10 to 100 |  |  | 
19 | CC(=O)Nc1cc(Nc2cccc(C(C)(C)F)n2)c(-c2ncc(F)cn2)cn1 [Example 215, N-(4-((6-(2-fluoropropan-2-yl)pyridin-2-yl)amino)-5-(5-fluoropyrimidin-2-yl)pyridin-2-yl)acetamide] | 10 to 100 |  | ≤ 10 |  | 
20 | COc1cc(Nc2cc(NC(C)=O)ncc2-c2ncc(F)cn2)nc(C(C)(F)F)c1 [Example 191, N-(4-((6-(1,1-difluoroethyl)-4-methoxypyridin-2-yl)amino)-5-(5-fluoropyrimidin-2-yl)pyridin-2-yl)acetamide] | 10 to 100 |  | ≤ 10 |  | 
21 | CC(=O)Nc1cc(Nc2ccnc(C(C)(F)F)n2)c(-c2ncc(Cl)cn2)cn1 [Example 697, N-(5-(5-chloropyrimidin-2-yl)-4-((2-(1,1-difluoroethyl)pyrimidin-4-yl)amino)pyridin-2-yl)acetamide] | 10 to 100 | ≤ 10 |  |  | 
22 | CC(=O)Nc1cc(Nc2cc(C)nc(C(C)(F)F)n2)c(OCc2cnn(C3CCC3)c2)cn1 [Example 354, N-(5-((1-cyclobutyl-1H-pyrazol-4-yl)methoxy)-4-((2-(1,1-difluoroethyl)-6-methylpyrimidin-4-yl)amino)pyridin-2-yl)acetamide] | 100 to 1000 |  | ≤ 10 |  | 
23 | CC(=O)Nc1cc(Nc2ccnc(C(C)(F)F)n2)c(-c2cnc(N3C[C@H]4C[C@@H]3CO4)cn2)cn1 [Example 871, N-(5-(5-((1R,4R)-2-oxa-5-azabicyclo[2.2.1]heptan-5-yl)pyrazin-2-yl)-4-((2-(1,1-difluoroethyl)pyrimidin-4-yl)amino)pyridin-2-yl)acetamide] |  |  |  | 10 to 100 | ≤ 10
24 | CC(=O)Nc1cc(Nc2cc(C)nc(C(C)(F)F)n2)c(-c2cccc(N3CCOCC3)n2)cn1 [Example 628, N-(4′-((2-(1,1-difluoroethyl)-6-methylpyrimidin-4-yl)amino)-6-morpholinO[2,3′-bipyridin]-6′-yl)acetamide] | ≤ 10 | ≤ 10 |  |  | 
25 | COCCOc1cc(Nc2cc(NC(C)=O)ncc2-c2ccncn2)nc(C(C)(F)F)n1 [Example 585, N-(4-((2-(1,1-difluoroethyl)-6-(2-methoxyethoxy)pyrimidin-4-yl)amino)-5-(pyrimidin-4-yl)pyridin-2-yl)acetamide] | ≤ 10 | ≤ 10 |  |  | 
26 | CC(=O)Nc1cc(Nc2ccnc(C(C)(F)F)n2)c(-c2cnc(N3CCOCC3)cn2)cn1 [Example 844, N-(4-((2-(1,1-difluoroethyl)pyrimidin-4-yl)amino)-5-(5-morpholinopyrazin-2-yl)pyridin-2-yl)acetamide] |  |  |  | 10 to 100 | ≤ 10
27 | CC(=O)Nc1cc(Nc2ccnc(C(C)(F)F)n2)c(-c2cnc(N3C[C@@H]4C[C@H]3CO4)cn2)cn1 [Example 870, N-(5-(5-((1S,4S)-2-oxa-5-azabicyclo[2.2.1]heptan-5-yl)pyrazin-2-yl)-4-((2-(1,1-difluoroethyl)pyrimidin-4-yl)amino)pyridin-2-yl)acetamide] |  |  |  | 10 to 100 | ≤ 10
28 | COc1cnc(NC(C)=O)cc1Nc1cc(-c2ccc(C#N)cc2)nc(C(C)(F)F)n1 [Example 393, N-(4-((6-(4-cyanophenyl)-2-(1,1-difluoroethyl)pyrimidin-4-yl)amino)-5-methoxypyridin-2-yl)acetamide] | 10 to 100 | ≤ 10 |  |  | 
29 | CC(=O)Nc1cc(Nc2cc(C)nc(C(C)(F)F)n2)c(-c2cn(C)nn2)cn1 [Example 607, N-(4-((2-(1,1-difluoroethyl)-6-methylpyrimidin-4-yl)amino)-5-(1-methyl-1H-1,2,3-triazol-4-yl)pyridin-2-yl)acetamide] | ≤ 10 | ≤ 10 |  |  | 

Source: patent publication US20260028365A1 (BIOGEN MA INC., priority 2022, published 2026)
